Patent publication US20230150977A1, “PYRIDAZINONE COMPOUNDS FOR THE TREATMENT OF NEUROMUSCULAR DISEASES” (Edgewise Therapeutics, Inc., priority 2020, published 2023)

Biological target: skeletal myofibrils (Rabbit Psoas) myosin ATPase
Test: Skeletal Myofibril ATPase Assay
Type: biochemical
Settings: PK/LDH coupled, absorbance at 340 nm
Procedure: Overview: Myosin ATPase activity was assessed by using a coupled reaction system, in which ADP generated by the myosin ATPase function was coupled to the disappearance of NADH through the pyruvate kinase/lactate dehydrogenase (PK-LDH) system. Myosin ATPase activity produces ADP, which was used as a substrate for PK to produce pyruvate and regenerate ATP. The pyruvate was then used as a substrate by LDH to oxidize NADH to NAD+. The rate of the reaction was monitored through the time-dependent disappearance of NADH using absorbance at 340 nm. Inhibition of ATPase activity by the assayed compounds was indicated by a reduced rate of NADH loss, relative to vehicle-treated controls, over the experimental time window. To assess the selectivity of the assayed compounds for skeletal myofibrils, the compounds were counter-screened in cardiac myofibrils.
Materials: The following stock solutions and reagents were used in the Skeletal Myofibril ATPase Assay:
Stock Solutions of pCa buffer. Combine PIPES, CaCl2, and EGTA solutions with 70 mL of water. Adjust pH to 7.0 and bring final volume to 100 mL.
Buffer A & Buffer B. Buffers were stored on ice until use.
Skeletal Myofibril ATPase Assay Procedure: BSA, ATP, NADH, PEP, and DTT solutions were thawed at room temperature, then transferred to ice. Pellet-frozen myofibrils (approximately twice the required volume) were transferred into a sufficiently large tube and capped. Myofibrils were thawed by rolling in a water bath for approximately 15 min at room temperature and cooled on ice. Buffers A and B were prepared by adjusting volumes as necessary for required number of wells and stored on ice. 0.5 μL of the compounds to be assayed were added into wells of a 384-well plate. Buffers A and B were mixed by inversion immediately prior to use, then 25 μL of each was dispensed using a Multidrop dispenser (Buffer A first, then Buffer B). The absorbance within the wells was measured at 340 nm, using a kinetic protocol in which the wells are read every 1.5-2 min for 1 h. The reaction rate was qualitatively assessed by subtracting the minimum absorbance value from the maximum value for each well, using either the SoftMax Pro plate reader software or a spreadsheet program such as Excel. Using GraphPad Prism 8.0, the data was normalized, with 100% activity defined as the absorbance change in the 1% DMSO vehicle wells and 0% assigned to no change in absorbance over the course of the experiment. The normalized data were fit to a variable-slope four-parameter logistic model, constraining the bottom to be 0 or greater. Compounds of Table 1 to 3 were tested and results of the assay appear in Table 4 herein. A=IC50 is less than or equal to 10 μM; B=IC50 is greater than 10 μM and less than 100 μM; C=IC50 is greater than 100 μM.

Structure (SMILES)	IC50
O=c1ccc(-c2ccc(Cl)cc2)nn1CCc1ccccc1 [Compound 15, 6-(4-chlorophenyl)-2-phenethylpyridazin-3(2H)-one]	≤ 10 µM
COc1ccc(-c2ccc(=O)n(CC3CCCCC3)n2)cc1 [Compound 14, 2-(cyclohexylmethyl)-6-(4-methoxyphenyl)pyridazin-3(2H)-one]	≤ 10 µM
O=c1ccc(-c2cnc(OCC(F)(F)F)nc2)nn1CCCc1ccccc1 [Compound 2, 2-(3-phenylpropyl)-6-(2-(2,2,2-trifluoroethoxy)pyrimidin-5-yl)pyridazin-3(2H)-one]	≤ 10 µM
CCCn1nc(-c2cnc(OCC(F)(F)F)nc2)ccc1=O [Compound 8, 2-propyl-6-(2-(2,2,2-trifluoroethoxy)pyrimidin-5-yl)pyridazin-3(2H)-one]	≤ 10 µM
CC(C)(C)CCn1nc(-c2cnc(OCC(F)(F)F)nc2)ccc1=O [Compound 17, 2-(3,3-dimethylbutyl)-6-(2-(2,2,2-trifluoroethoxy)pyrimidin-5-yl)pyridazin-3(2H)-one]	10 to 100 µM
O=c1ccc(-c2cnc(OCC(F)(F)F)nc2)nn1CCc1ccccc1 [Compound 4, 2-phenethyl-6-(2-(2,2,2-trifluoroethoxy)pyrimidin-5-yl)pyridazin-3(2H)-one]	≤ 10 µM
O=c1ccc(-c2cnc(OCC(F)(F)F)nc2)nn1CCc1ccc(Cl)cc1 [Compound 6, 2-(4-chlorophenethyl)-6-(2-(2,2,2-trifluoroethoxy)pyrimidin-5-yl)pyridazin-3(2H)-one]	≤ 10 µM
O=c1ccc(-c2cnc(OCC(F)(F)F)nc2)nn1CCC12CC(C1)C2 [Compound 7, 2-(2-(bicyclo[1.1.1]pentan-1-yl)ethyl)-6-(2-(2,2,2-trifluoroethoxy)pyrimidin-5-yl)pyridazin-3(2H)-one]	≤ 10 µM
O=c1ccc(-c2cnc(OCC(F)(F)F)nc2)nn1CCC1CC1 [Compound 5, 2-(2-cyclopropylethyl)-6-(2-(2,2,2-trifluoroethoxy)pyrimidin-5-yl)pyridazin-3(2H)-one]	≤ 10 µM
COc1ccc(-c2ccc(=O)n(CCc3ccccc3)n2)cc1 [Compound 16, 6-(4-methoxyphenyl)-2-phenethylpyridazin-3(2H)-one]	≤ 10 µM
O=c1ccc(-c2ccc(OC(F)F)cc2)nn1CCc1ccc(Cl)cc1 [Compound 11, 2-(4-chlorophenethyl)-6-(4-(difluoromethoxy)phenyl)pyridazin-3(2H)-one]	≤ 10 µM
O=c1ccc(-c2cnc(OCC(F)(F)F)nc2)nn1CCC1CCC1 [Compound 1, 2-(2-cyclobutylethyl)-6-(2-(2,2,2-trifluoroethoxy)pyrimidin-5-yl)pyridazin-3(2H)-one]	≤ 10 µM
O=c1ccc(-c2ccc(OC(F)F)nc2)nn1CCc1ccc(Cl)cc1 [Compound 12, 2-(4-chlorophenethyl)-6-(6-(difluoromethoxy)pyridin-3-yl)pyridazin-3(2H)-one]	≤ 10 µM
O=c1ccc(-c2ccccc2)nn1CC(O)COCc1ccccc1Cl (stereo not drawn) [Compound 18, 2-(3-((2-chlorobenzyl)oxy)-2-hydroxypropyl)-6-phenylpyridazin-3(2H)-one]	10 to 100 µM
CSc1ccc(-c2ccc(=O)n(C/C=C/c3ccccc3)n2)cc1 [Compound 20, 2-cinnamyl-6-(4-(methylthio)phenyl)pyridazin-3(2H)-one]	≤ 10 µM
O=c1ccc(-c2cnc(OCC(F)(F)F)nc2)nn1CCc1ccncc1 [Compound 19, 2-[2-(pyridin-4-yl)ethyl]-6-[2-(2,2,2-trifluoroethoxy)pyrimidin-5-yl]pyridazin-3-one]	≤ 10 µM
CC(Cn1nc(-c2cnc(OCC(F)(F)F)nc2)ccc1=O)c1ccccc1 (stereo not drawn) [Compound 13, 2-(2-phenylpropyl)-6-(2-(2,2,2-trifluoroethoxy)pyrimidin-5-yl)pyridazin-3(2H)-one]	≤ 10 µM
O=c1ccc(-c2cnc(OCC(F)(F)F)nc2)nn1CCc1ccccn1 [Compound 10, 2-(2-(pyridin-2-yl)ethyl)-6-(2-(2,2,2-trifluoroethoxy)pyrimidin-5-yl)pyridazin-3(2H)-one]	≤ 10 µM

Now from value to molecule:

IC50	Structure (SMILES)
> 100 µM	O=c1ccc(-c2ccc(Cl)cc2)nn1CC1CCOCC1 [Compound 35, 6-(4-chlorophenyl)-2-((tetrahydro-2H-pyran-4-yl)methyl)pyridazin-3(2H)-one]
10 to 100 µM	C=C(C)Cn1nc(-c2ccc(Br)cc2)ccc1=O [Compound 27, 6-(4-bromophenyl)-2-(2-methylallyl)pyridazin-3(2H)-one]
10 to 100 µM	N#CCn1nc(-c2ccc(Br)cc2)ccc1=O [Compound 23, 2-(3-(4-bromophenyl)-6-oxopyridazin-1(6H)-yl)acetonitrile]
> 100 µM	CS(=O)(=O)NCCn1nc(-c2ccc(OC(F)F)nc2)ccc1=O [Compound 30, N-(2-(3-(6-(difluoromethoxy)pyridin-3-yl)-6-oxopyridazin-1(6H)-yl)ethyl)methanesulfonamide]
> 100 µM	CCNC(Cn1nc(-c2ccc(OC(F)F)nc2)ccc1=O)C(F)(F)F (stereo not drawn) [Compound 33, 6-(6-(difluoromethoxy)pyridin-3-yl)-2-(2-(ethylamino)-3,3,3-trifluoropropyl)pyridazin-3(2H)-one]
> 100 µM	CC1(Cn2nc(-c3ccc(OC(F)F)nc3)ccc2=O)COC1 [Compound 31, 6-(6-(difluoromethoxy)pyridin-3-yl)-2-((3-methyloxetan-3-yl)methyl)pyridazin-3(2H)-one]
10 to 100 µM	N#CCn1nc(-c2cnc(OCC(F)(F)F)nc2)ccc1=O [Compound 25, 2-(6-oxo-3-(2-(2,2,2-trifluoroethoxy)pyrimidin-5-yl)pyridazin-1(6H)-yl)acetonitrile]
> 100 µM	CCOc1ccc(-c2ccc(=O)n(CCNC(=O)C3CCCC3)n2)cc1 [Compound 28, N-(2-(3-(4-ethoxyphenyl)-6-oxopyridazin-1(6H)-yl)ethyl)cyclopentanecarboxamide]
> 100 µM	CC1(Cn2nc(-c3cnc(OCC(F)(F)F)nc3)ccc2=O)COC1 [Compound 32, 2-((3-methyloxetan-3-yl)methyl)-6-(2-(2,2,2-trifluoroethoxy)pyrimidin-5-yl)pyridazin-3(2H)-one]
≤ 10 µM	O=c1ccc(-c2ccc(Cl)cc2)nn1CC1CCCCC1 [Compound 21, 6-(4-chlorophenyl)-2-(cyclohexylmethyl)pyridazin-3(2H)-one]
> 100 µM	COc1ccc(-c2ccc(=O)n(CCNC(=O)Nc3cccs3)n2)cc1 [Compound 37, 1-(2-(3-(4-methoxyphenyl)-6-oxopyridazin-1(6H)-yl)ethyl)-3-(thiophen-2-yl)urea]
10 to 100 µM	O=c1ccc(-c2ccc3c(c2)OCCCO3)nn1CCOc1ccc(F)cc1 [Compound 22, 6-(3,4-dihydro-2H-benzo[b][1,4]dioxepin-7-yl)-2-(2-(4-fluorophenoxy)ethyl)pyridazin-3(2H)-one]
> 100 µM	O=c1ccc(-c2ccc(OC(F)F)nc2)nn1CCO [Compound 34, 6-(6-(difluoromethoxy)pyridin-3-yl)-2-(2-hydroxyethyl)pyridazin-3(2H)-one]
> 100 µM	CCOc1ccc(-c2ccc(=O)n(CCNC(=O)CC3CCCC3)n2)cc1 [Compound 24, 2-cyclopentyl-N-(2-(3-(4-ethoxyphenyl)-6-oxopyridazin-1(6H)-yl)ethyl)acetamide]
> 100 µM	CC(=O)NCCn1nc(-c2ccc(OC(F)F)cc2)ccc1=O [Compound 29, N-(2-(3-(4-(difluoromethoxy)phenyl)-6-oxopyridazin-1(6H)-yl)ethyl)acetamide]
